The text below walks through data of patent publication US20160219881A1, “HERBICIDALLY ACTIVE 2-HALOGEN-4-ALKYNYL-PHENYL-PYRAZOLIDINE-DIONE OR PYRROLIDINE-DIONE DERIVATIVES” (SYNGENTA LIMITED, priority 2013, published 2016).

Holding throughout (format): in vivo
The test system of assay [1] is Echinochloa crus-galli (ECHCG). In words: Test 1A glasshouse assay, post-emergence herbicidal activity. The note with it: 312 h, 13 days after application, read-out: Post-Emergence Herbicidal Activity (% Phytotoxicity) ECHCG. As to the method:
(§1) Seeds of a variety of test species are sown in standard soil (usually sandy soil) in pots. After cultivation for one day (pre-emergence) or after 8 days cultivation (post-emergence) under controlled conditions in a glasshouse (at 24/16° C., day/night; 14 hours light; 65% humidity), the plants are sprayed with an aqueous spray solution derived from the formulation of the technical active ingredient (compound) in acetone/water (50:50) solution containing 0.5% Tween 20 (polyoxyethylene sorbitan monolaurate, CAS RN 9005-64-5). The test plants are then grown under controlled conditions in a glasshouse (at 24/16° C., day/night; 14 hours light; 65% humidity) and watered twice daily. 13 days after application of the test compounds, for pre- and post-emergence, the test is evaluated visually for percentage phytotoxicity to each plant (where 100%=total damage to plant; 0%=no damage to plant).
(§2) Alopecurus myosuroides (ALOMY), Setaria faberi (SETFA), Echinochloa crus-galli (ECHCG), Amaranthus retroflexus (AMARE), and Abutilon theophasti Medik. (ABUTH, common English name “velvetleaf”). Of these, Alopecurus myosuroides (ALOMY), Setaria faberi (SETFA), and Echinochloa crus-galli (ECHCG) are grassy monocotyledonous weeds. […]

Assay [2] has as its system Alopecurus myosuroides (ALOMY). Described as above. The note with it: 312 h, 13 days after application, read-out: Post-Emergence Herbicidal Activity (% Phytotoxicity) ALOMY. The method, then:
as §1, §2

Assay [3] deals with Brassica napus (BRSNN, rape). Briefly: Biological Example 3 (Test 2 glasshouse assay), post-emergence herbicidal activity. The method, then: (§3) Seeds of a variety of monocotyledonous and dicotyledonous test plants are sown in standard soil in pots. The plants are cultivated for one day (for pre-emergence) or for about 12 days (range=10-13 days) (for post-emergence) under controlled conditions in a glasshouse (warm climate species at 24/18° C., cool climate species at 20/16° C., both at day/night; 16 hours light; 65% humidity).
(§4) An “instant formulation”, known as the “IF50”, containing 50 g/litre (i.e. 5% w/v) of the “technical” (i.e. unformulated) active ingredient is prepared by dissolving the active ingredient in a mixture of organic solvents and emulsifier, details of which are provided in the Table below. This IF50 is then mixed with a small, variable amount of acetone to aid dissolution, before addition of a 0.2% v/v aqueous solution of the adjuvant X-77 (which is a mixture of alkyl aryl polyoxyethylene glycols and free fatty acids in isopropanol, CAS Registry number 11097-66-8), as the aqueous diluent, to form an aqueous spray solution which contains a predetermined concentration of the active ingredient (which varies depending on the application rate of the active ingredient to the plants) and 0.2% v/v of the adjuvant X-77. This aqueous spray solution is then sprayed onto the plants, after one day's cultivation (for pre-emergence) or after about 12 days' cultivation (for post-emergence).
(§5) The test plants are then grown on, in a glasshouse (greenhouse) under controlled conditions (at either 24/18° C. or 20/16° C. (day/night) as mentioned above; 16 hours light; 65% humidity) and are watered twice daily. Either 15 days after application of the test compound (15 DAA) (for post-emergence), or 20 days after application of the test compound (20 DAA) (for pre-emergence), the test plants are evaluated visually, and an assessed percentage phytotoxicity score is given for each compound application on each plant species (where 100%=total damage to plant; 0%=no damage to plant).
(§6) Cool climate crop plants: Triticum aestivum (TRZAW, winter wheat), Brassica napus (BRSNN, rape, also called oilseed rape or rapeseed), Beta vulgaris (BEAVA, sugar beet). Warm climate crop plants: Glycine max (GLXMA, soybean). Cool climate (“cool season”) grassy monocotyledonous weeds: Alopecurus myosuroides (ALOMY), Avena fatua (AVEFA), Lolium perenne (LOLPE). Warm climate (“warm season”) grassy monocotyledonous weeds: Setaria faberi (SETFA), SORVU (Sorghum bicolor (L.) Moench ssp. Bicolor, or Sorghum vulgare Pers.), Digitaria sanguinalis (DIGSA), Echinochloa crus-galli (ECHCG), and Brachiaria plantaginea (BRAPL).

Assay [4] deals with Echinochloa crus-galli (ECHCG). The assay is described as above. As to the method: as §3, §4, §5, §6
Assay [5] relates to Triticum aestivum (TRZAW, winter wheat). The assay is described as above. As to the method: as §3, §4, §5, §6
Assay [6] concerns Glycine max (GLXMA, soybean). Described as above. The method, then: as §3, §4, §5, §6
Assay [7] has as its system Lolium perenne (LOLPE). The description is as above. The method, then: as §3, §4, §5, §6
In assay [8] the test system is Beta vulgaris (BEAVA, sugar beet). The description is as above. The method, then: as §3, §4, §5, §6
Assay [9] has as its system Digitaria sanguinalis (DIGSA). The assay is described as above. The method, then:
as §3, §4, §5, §6

Assay [10] concerns Brachiaria plantaginea (BRAPL). Described as above. As to the method:
as §3, §4, §5, §6

Assay [11] deals with Alopecurus myosuroides (ALOMY). The description is as above. As to the method:
as §3, §4, §5, §6

Assay [12] relates to SORVU (Sorghum bicolor (L.) Moench ssp. Bicolor, or Sorghum vulgare Pers.). Described as above. As to the method: as §3, §4, §5, §6
Assay [13] has as its system Abutilon theophasti Medik. (ABUTH). In words: Test 1A glasshouse assay, pre-emergence herbicidal activity. The note with it: 312 h, 250 g/ha, 13 days after application, read-out: Pre-Emergence Herbicidal Activity (% Phytotoxicity) ABUTH. The method, then: as §1
Alopecurus myosuroides (ALOMY), Setaria faberi (SETFA), Echinochloa crus-galli (ECHCG), Amaranthus retroflexus (AMARE), and Abutilon theophasti Medik. (ABUTH, common English name “velvetleaf”). Of these, Alopecurus myosuroides (ALOMY), Setaria faberi (SETFA), and Echinochloa crus-galli (ECHCG) are grassy monocotyledonous weeds.

For assay [14], the system named is Setaria faberi (SETFA). In words: Biological Example 3 (Test 2 glasshouse assay), post-emergence herbicidal activity. The method, then: as §3, §4, §5, §6

On to `CC#Cc1cc(C)c(C2C(=O)N(C)N(C)C2=O)c(C)c1` [Compound A1], for which the inhibition at 250 g/ha is 40% in [1], 0% in [2] and 0% in [13]. The “Post-Emergence Herbicidal Activity (Percentage Phytotoxicity) BRSNN” value in assay [3] (30 g/ha) and in assay [3] (125 g/ha) was 70% in each case. Besides, the “Post-Emergence Herbicidal Activity (Percentage Phytotoxicity) ECHCG” value in [4] (30 g/ha (rate by row order)) was determined as 70%; in [4] (125 g/ha (rate by row order)), 90%. In addition, the results for the “Post-Emergence Herbicidal Activity (Percentage Phytotoxicity) TRZAW” value in [5] (30 g/ha) and in [5] (125 g/ha) were 30% and 80%, respectively. In addition, the results for the “Post-Emergence Herbicidal Activity (Percentage Phytotoxicity) GLXMA” value in assay [6] (30 g/ha) and in [6] (125 g/ha) were 30% and 70%, respectively. Also, the entries for the “Post-Emergence Herbicidal Activity (Percentage Phytotoxicity) LOLPE” value in [7] (30 g/ha) and in [7] (125 g/ha) were 30% and 80%, respectively. The “Post-Emergence Herbicidal Activity (Percentage Phytotoxicity) BEAVA” value in [8] (30 g/ha) was found to be 0%; in [8] (125 g/ha), 10%. In addition, the results for the “Post-Emergence Herbicidal Activity (Percentage Phytotoxicity) DIGSA” value in assay [9] (30 g/ha (rate by row order)) and in assay [9] (125 g/ha (rate by row order)) were 80% and 90%, respectively. The “Post-Emergence Herbicidal Activity (Percentage Phytotoxicity) BRAPL” value in [10] (30 g/ha (rate by row order)) came to 70%; in [10] (125 g/ha (rate by row order)) it was 100%. The figures for the “Post-Emergence Herbicidal Activity (Percentage Phytotoxicity) ALOMY” value in assay [11] (30 g/ha) and in [11] (125 g/ha) were 10% and 70%, respectively. Also, the figures for the “Post-Emergence Herbicidal Activity (Percentage Phytotoxicity) SORVU” value in assay [12] (30 g/ha (rate by row order)) and in assay [12] (125 g/ha (rate by row order)) were 70% and 80%, respectively.
As to `CC#Cc1cc(C)c(C2C(=O)N3CCCCCN3C2=O)c(C)c1` [Compound A23, 2-(2,6-dimethyl-4-prop-1-ynyl-phenyl)-6,7,8,9-tetrahydro-5H-pyrazolo[1,2-a]diazepine-1,3-dione], the inhibition at 250 g/ha was found to be 80% in assay [1], 80% in assay [2] and 10% in assay [13]. The results for the “Post-Emergence Herbicidal Activity (Percentage Phytotoxicity) BRSNN” value in assay [3] (30 g/ha) and in [3] (125 g/ha) were 30% and 50%, respectively. The results for the “Post-Emergence Herbicidal Activity (Percentage Phytotoxicity) ECHCG” value in assay [4] (30 g/ha (rate by row order)) and in [4] (125 g/ha (rate by row order)) were 0% and 20%, respectively. For the same compound, the “Post-Emergence Herbicidal Activity (Percentage Phytotoxicity) TRZAW” value is on record as 0% in assay [5] (30 g/ha) and 50% in [5] (125 g/ha). Besides, the entries for the “Post-Emergence Herbicidal Activity (Percentage Phytotoxicity) GLXMA” value in assay [6] (30 g/ha) and in assay [6] (125 g/ha) were 0% and 70%, respectively. The “Post-Emergence Herbicidal Activity (Percentage Phytotoxicity) LOLPE” value is reported as 0% in [7] (30 g/ha) and 40% in assay [7] (125 g/ha). The “Post-Emergence Herbicidal Activity (Percentage Phytotoxicity) BEAVA” value in assay [8] (30 g/ha) worked out at 10%; in assay [8] (125 g/ha), 40%. For the same compound, the “Post-Emergence Herbicidal Activity (Percentage Phytotoxicity) DIGSA” value in assay [9] (30 g/ha (rate by row order)) was 30%; in assay [9] (125 g/ha (rate by row order)) it was 70%. Further, the figures for the “Post-Emergence Herbicidal Activity (Percentage Phytotoxicity) BRAPL” value in [10] (30 g/ha (rate by row order)) and in assay [10] (125 g/ha (rate by row order)) were 0% and 10%, respectively. Also, the “Post-Emergence Herbicidal Activity (Percentage Phytotoxicity) ALOMY” value was determined as 0% in assay [11] (30 g/ha) and 50% in assay [11] (125 g/ha). Besides, the “Post-Emergence Herbicidal Activity (Percentage Phytotoxicity) SETFA” value in [14] (30 g/ha (rate by row order)) stood at 0%; in assay [14] (125 g/ha (rate by row order)), 70%. For the same compound, the results for the “Post-Emergence Herbicidal Activity (Percentage Phytotoxicity) SORVU” value in [12] (30 g/ha (rate by row order)) and in [12] (125 g/ha (rate by row order)) were 50% and 70%, respectively.
Consider `CC#Cc1cc(C)c(C2C(=O)C(Cc3ccccn3)N(C)C2=O)c(C)c1` (stereo not drawn) [Compound A50, 3-(2,6-dimethyl-4-prop-1-ynyl-phenyl)-1-methyl-5-(2-pyridylmethyl)pyrrolidine-2,4-dione], for which the inhibition at 15.625 g/ha in [1] (15.625 g/ha) worked out at 80%; in assay [2] (15.625 g/ha) it was 30%. The figures for the inhibition at 62.5 g/ha in assay [1] (62.5 g/ha) and in assay [2] (62.5 g/ha) were 100% and 90%, respectively. Besides, the inhibition at 250 g/ha in [1] and in assay [2] was 100% in each case.
